{"source": "patent US4668627A", "about": "“Novel antibiotic compound” (Kureha Kagaku Kogyo Kabushiki Kaisha, priority 1982, dated 1987)", "key": {"[1]": {"test_system": "Peptostreptococcus parvulus", "assay": "MIC, agar dilution, nutrient agar medium", "type": "cell-based", "conditions": "Lancefieldella parvula"}, "[2]": {"test_system": "Proteus vulgaris IFO 3167", "assay": "MIC, agar dilution, nutrient agar medium", "type": "cell-based", "conditions": "IFO3167"}, "Bacteroides fragilis": {"test_system": "Bacteroides fragilis", "assay": "MIC, agar dilution, nutrient agar medium", "type": "cell-based"}, "[3]": {"test_system": "Lactobacillus acidophilus", "assay": "MIC, agar dilution, nutrient agar medium", "type": "cell-based"}, "[4]": {"test_system": "Epidermophyton floccosum IFO 9045", "assay": "MIC, agar dilution, nutrient agar medium", "type": "cell-based", "conditions": "IFO9045"}, "Salmonella anatum 1": {"test_system": "Salmonella anatum 1", "assay": "MIC, agar dilution, nutrient agar medium", "type": "cell-based", "conditions": "Salmonella enterica"}, "Eubacterium aerofaciens": {"test_system": "Eubacterium aerofaciens", "assay": "MIC, agar dilution, nutrient agar medium", "type": "cell-based", "conditions": "Collinsella aerofaciens"}, "[5]": {"test_system": "Pseudomonas fluorescens IFO 3903", "assay": "MIC, agar dilution, nutrient agar medium", "type": "cell-based", "conditions": "IFO3903"}, "[6]": {"test_system": "Proteus morganii IFO 3168", "assay": "MIC, agar dilution, nutrient agar medium", "type": "cell-based", "conditions": "Morganella morganii, IFO3168"}, "[7]": {"test_system": "Corynebacterium equi IFO 3730", "assay": "MIC, agar dilution, nutrient agar medium", "type": "cell-based", "conditions": "Rhodococcus (subgen. Prescottella) equi, IFO3730"}, "[8]": {"test_system": "Vibrio tyrogenes IAM 1080", "assay": "MIC, agar dilution, nutrient agar medium", "type": "cell-based", "conditions": "IAM1080"}, "[9]": {"test_system": "various gram-positive and gram-negative bacteria", "assay": "antibacterial activity (general statement)", "type": "cell-based"}, "[10]": {"test_system": "Candida albicans IAM 4905", "assay": "MIC, agar dilution, nutrient agar medium", "type": "cell-based", "conditions": "IAM4905"}, "[11]": {"test_system": "Vibrio-metshnikov IAM 1039", "assay": "MIC, agar dilution, nutrient agar medium", "type": "cell-based"}, "[12]": {"test_system": "Xanthomonas oryzae IAM 1657", "assay": "microbe, parasite or virus in culture", "type": "cell-based", "conditions": "IAM1657"}, "[13]": {"test_system": "Streptococcus pyogenes IFO 3340", "assay": "MIC, agar dilution, nutrient agar medium", "type": "cell-based", "conditions": "IFO3340"}, "[14]": {"test_system": "Escherichia coli K-12 IAM 1264", "assay": "MIC, agar dilution, nutrient agar medium", "type": "cell-based", "conditions": "IAM1264"}, "[15]": {"test_system": "Klebsiella pneumoniae IFO 12015", "assay": "MIC, agar dilution, nutrient agar medium", "type": "cell-based", "conditions": "IFO12015"}, "Erwinia aroidae IAM 1068": {"test_system": "Erwinia aroidae IAM 1068", "assay": "MIC, agar dilution, nutrient agar medium", "type": "cell-based", "conditions": "IAM1068"}, "[16]": {"test_system": "Bacillus subtilis PCI 219", "assay": "MIC, agar dilution, nutrient agar medium", "type": "cell-based", "conditions": "PCI219"}, "[17]": {"test_system": "Citrobacter freundii IFO 12681", "assay": "MIC, agar dilution, nutrient agar medium", "type": "cell-based", "conditions": "IFO12681"}, "Pseudomonas putida T-2": {"test_system": "Pseudomonas putida T-2", "assay": "MIC, agar dilution, nutrient agar medium", "type": "cell-based", "conditions": "T2"}, "[18]": {"test_system": "Salmonella abortusequi ATCC 9842", "assay": "MIC, agar dilution, nutrient agar medium", "type": "cell-based", "conditions": "Salmonella enterica, ATCC9842"}, "[19]": {"test_system": "Peptostreptococcus micros", "assay": "MIC, agar dilution, nutrient agar medium", "type": "cell-based", "conditions": "Parvimonas micra"}, "[20]": {"test_system": "Aspergillus oryzae IAM 2732", "assay": "MIC, agar dilution, nutrient agar medium", "type": "cell-based", "conditions": "IAM2732"}, "[21]": {"test_system": "Pseudomonas aeruginosa IFO 3080", "assay": "MIC, agar dilution, nutrient agar medium", "type": "cell-based", "conditions": "IFO3080"}, "[22]": {"test_system": "Mycobacterium avium IFO 3082", "assay": "MIC, agar dilution, nutrient agar medium", "type": "cell-based", "conditions": "IFO3082"}, "[23]": {"test_system": "Serratia marcescens IAM 1065", "assay": "MIC, agar dilution, nutrient agar medium", "type": "cell-based", "conditions": "IAM1065"}, "[24]": {"test_system": "Penicillium funiculosum IFO 6345", "assay": "MIC, agar dilution, nutrient agar medium", "type": "cell-based", "conditions": "Talaromyces funiculosus, IFO6345"}, "[25]": {"test_system": "Bifidobacterium adolescentis", "assay": "MIC, agar dilution, nutrient agar medium", "type": "cell-based"}, "[26]": {"test_system": "Proteus inconstans IFO 12930", "assay": "MIC, agar dilution, nutrient agar medium", "type": "cell-based", "conditions": "Providencia alcalifaciens, IFO12930"}, "[27]": {"test_system": "Micrococcus luteus PCI 1001", "assay": "MIC, agar dilution, nutrient agar medium", "type": "cell-based", "conditions": "PCI1001"}, "Saccharomyces cerevisiae": {"test_system": "Saccharomyces cerevisiae", "assay": "MIC, agar dilution, nutrient agar medium", "type": "cell-based"}, "[28]": {"test_system": "Aspergillus niger IFO 6342", "assay": "MIC, agar dilution, nutrient agar medium", "type": "cell-based", "conditions": "IFO6342"}, "[29]": {"test_system": "Corynebacterium faciens IAM 1079", "assay": "MIC, agar dilution, nutrient agar medium", "type": "cell-based", "conditions": "IAM1079"}, "Peptococcus aerogenes": {"test_system": "Peptococcus aerogenes", "assay": "MIC, agar dilution, nutrient agar medium", "type": "cell-based", "conditions": "Peptoniphilus asaccharolyticus"}, "[30]": {"test_system": "Aerobacter aerogenes ATCC 8724", "assay": "MIC, agar dilution, nutrient agar medium", "type": "cell-based", "conditions": "Klebsiella aerogenes, ATCC8724"}, "[31]": {"test_system": "Trichophyton rubrum IFO 5467", "assay": "MIC, agar dilution, nutrient agar medium", "type": "cell-based", "conditions": "IFO5467"}, "[32]": {"test_system": "Staphylococcus aureus 209 p", "assay": "MIC, agar dilution, nutrient agar medium", "type": "cell-based"}, "mouse": {"test_system": "mouse", "assay": "acute toxicity to mouse, intraperitoneal", "type": "in vivo", "conditions": "intraperitoneally, 100 mg/kg"}, "[33]": {"test_system": "Fusobacterium necrophorum", "assay": "MIC, agar dilution, nutrient agar medium", "type": "cell-based"}, "[34]": {"test_system": "Trichophyton interdigitale", "assay": "MIC, agar dilution, nutrient agar medium", "type": "cell-based"}, "[35]": {"test_system": "Micrococcus lysodeikticus", "assay": "MIC, agar dilution, nutrient agar medium", "type": "cell-based", "conditions": "Micrococcus luteus"}, "[36]": {"test_system": "Microsporum gypseum IFO 5948", "assay": "MIC, agar dilution, nutrient agar medium", "type": "cell-based", "conditions": "Nannizzia gypsea, IFO5948"}, "[37]": {"test_system": "Proteus mirabilis IFO 3849", "assay": "MIC, agar dilution, nutrient agar medium", "type": "cell-based", "conditions": "IFO3849"}, "Pseudomonas ovalis": {"test_system": "Pseudomonas ovalis", "assay": "MIC, agar dilution, nutrient agar medium", "type": "cell-based", "conditions": "Pseudomonas putida"}, "[38]": {"assay": "solubility in organic solvents", "type": "physicochemical"}, "[39]": {"test_system": "Aspergillus fumigatus IAM 2155", "assay": "MIC, agar dilution, nutrient agar medium", "type": "cell-based", "conditions": "IAM2155"}}}
{"smiles": "[C-]#[N+]C12CC3(/C=C/C(=O)O)OC3C1O2", "note": "(stereo not shown) [Antibiotic No. 2188, 3-(6-isocyano-3,7-dioxatricyclo[4.1.0.0^2,4]hept-4-yl)propenoic acid]", "values": [{"measurement": "MIC", "setting": "[1]", "result": 50, "unit": "µg/mL"}, {"measurement": "MIC", "setting": "[2]", "result": 12.5, "unit": "µg/mL"}, {"measurement": "MIC", "setting": "Bacteroides fragilis", "result": 50, "unit": "µg/mL"}, {"measurement": "MIC", "setting": "[3]", "result": 200, "unit": "µg/mL"}, {"measurement": "MIC", "setting": "[4]", "result": 50, "unit": "µg/mL"}, {"measurement": "MIC", "setting": "Salmonella anatum 1", "result": 12.5, "unit": "µg/mL"}, {"measurement": "MIC", "setting": "Eubacterium aerofaciens", "result": "> 200", "unit": "µg/mL"}, {"measurement": "MIC", "setting": "[5]", "result": 12.5, "unit": "µg/mL"}, {"measurement": "MIC", "setting": "[6]", "result": 12.5, "unit": "µg/mL"}, {"measurement": "MIC", "setting": "[7]", "result": 6.25, "unit": "µg/mL"}, {"measurement": "MIC", "setting": "[8]", "result": 3.1, "unit": "µg/mL"}, {"measurement": "antibacterial activity", "setting": "[9]", "result": "shows an antibacterial activity against various gram-positive and gram-negative bacteria"}, {"measurement": "MIC", "setting": "[10]", "result": "> 200", "unit": "µg/mL"}, {"measurement": "MIC", "setting": "[11]", "result": 1.6, "unit": "µg/mL"}, {"measurement": "MIC", "setting": "[12]", "result": 50, "unit": "µg/mL"}, {"measurement": "MIC", "setting": "[13]", "result": 6.25, "unit": "µg/mL"}, {"measurement": "MIC", "setting": "[14]", "result": 12.5, "unit": "µg/mL"}, {"measurement": "MIC", "setting": "[15]", "result": 50, "unit": "µg/mL"}, {"measurement": "MIC", "setting": "Erwinia aroidae IAM 1068", "result": 25, "unit": "µg/mL"}, {"measurement": "MIC", "setting": "[16]", "result": 12.5, "unit": "µg/mL"}, {"measurement": "MIC", "setting": "[17]", "result": 12.5, "unit": "µg/mL"}, {"measurement": "MIC", "setting": "Pseudomonas putida T-2", "result": 6.25, "unit": "µg/mL"}, {"measurement": "MIC", "setting": "[18]", "result": 12.5, "unit": "µg/mL"}, {"measurement": "MIC", "setting": "[19]", "result": 25, "unit": "µg/mL"}, {"measurement": "MIC", "setting": "[20]", "result": "> 200", "unit": "µg/mL"}, {"measurement": "MIC", "setting": "[21]", "result": 100, "unit": "µg/mL"}, {"measurement": "MIC", "setting": "[22]", "result": 12.5, "unit": "µg/mL"}, {"measurement": "MIC", "setting": "[23]", "result": "> 100", "unit": "µg/mL"}, {"measurement": "MIC", "setting": "[24]", "result": 200, "unit": "µg/mL"}, {"measurement": "MIC", "setting": "[25]", "result": 200, "unit": "µg/mL"}, {"measurement": "MIC", "setting": "[26]", "result": 50, "unit": "µg/mL"}, {"measurement": "MIC", "setting": "[27]", "result": 6.25, "unit": "µg/mL"}, {"measurement": "MIC", "setting": "Saccharomyces cerevisiae", "result": "> 200", "unit": "µg/mL"}, {"measurement": "MIC", "setting": "[28]", "result": "> 200", "unit": "µg/mL"}, {"measurement": "MIC", "setting": "[29]", "result": 12.5, "unit": "µg/mL"}, {"measurement": "MIC", "setting": "Peptococcus aerogenes", "result": 25, "unit": "µg/mL"}, {"measurement": "MIC", "setting": "[30]", "result": 50, "unit": "µg/mL"}, {"measurement": "MIC", "setting": "[31]", "result": 50, "unit": "µg/mL"}, {"measurement": "MIC", "setting": "[32]", "result": 6.25, "unit": "µg/mL"}, {"measurement": "acute toxicity", "setting": "mouse", "result": "no acute toxicity"}, {"measurement": "MIC", "setting": "[33]", "result": 50, "unit": "µg/mL"}, {"measurement": "MIC", "setting": "[34]", "result": 100, "unit": "µg/mL"}, {"measurement": "MIC", "setting": "[35]", "result": 6.25, "unit": "µg/mL"}, {"measurement": "MIC", "setting": "[36]", "result": 100, "unit": "µg/mL"}, {"measurement": "MIC", "setting": "[37]", "result": 50, "unit": "µg/mL"}, {"measurement": "MIC", "setting": "Pseudomonas ovalis", "result": "> 100", "unit": "µg/mL"}, {"measurement": "solubility", "setting": "[38]; hexane and petroleum ether", "result": "insoluble"}, {"measurement": "solubility", "setting": "[38]; methanol, ethanol, acetone, ethyl acetate, chloroform and benzene", "result": "soluble"}, {"measurement": "MIC", "setting": "[39]", "result": 100, "unit": "µg/mL"}]}
